Measurements reported in US20050282743A1, “Molecular interactions in cells” (Arbor Vita Corporation, priority 2001, published 2005).
Blank lines part the entries; values can stand above or below the compound they belong to. Ends that are not written are not given here. Peptide text beside a SMILES is read from it. * marks the point of attachment. Biotin = O=C1N[C@H]2[C@H](CS[C@H]2CCCCC(=O)*)N1

Legend:
Type in all cases: binding
[1] = molecular target: T1, PSD95 (PDZ Domain 1, 2, 3) (Homo sapiens, UniProt P78352); assay: G' assay, TABLE 12; settings: A450 nm class of biotinylated PL peptide bound; 0 in conc columns = peptide 10 uM, protein 5 ug/ml
T1 construct: When more than one PDZ domain was cloned, the DNA portion cloned represents the PDZ domains and the cDNA portion located between individual domains; made in house; host or cells: E. coli (DH5alpha, BL21 or JM109)
Method in brief: (§1)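 PL peptide binding to PDZ domain protein, peptide at 10 uM; protein at 5 ug/ml unless another concentration is listed for Kd determination. Bound peptide read at A450 nm and binned into classes 0–5.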

[2] = molecular target: T2, NeDLG (PDZ Domain 1, 2) (Homo sapiens, UniProt Q92796); assay: G' assay, TABLE 12; settings: A450 nm class of biotinylated PL peptide bound; 0 in conc columns = peptide 10 uM, protein 5 ug/ml
T2 construct: When more than one PDZ domain was cloned, the DNA portion cloned represents the PDZ domains and the cDNA portion located between individual domains; made in house; host or cells: E. coli (DH5alpha, BL21 or JM109)
T2 sequence (Q92796 129-315 limits assumed): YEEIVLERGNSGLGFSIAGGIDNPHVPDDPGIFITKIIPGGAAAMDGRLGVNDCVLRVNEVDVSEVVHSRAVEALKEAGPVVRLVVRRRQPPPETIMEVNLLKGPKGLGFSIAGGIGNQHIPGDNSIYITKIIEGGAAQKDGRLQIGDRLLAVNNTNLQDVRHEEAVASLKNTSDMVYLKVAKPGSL
Method in brief: as §1

[3] = molecular target: T3, DLG1 (PDZ Domain 1, 2) (Homo sapiens, UniProt Q12959); assay: G' assay, TABLE 12; settings: A450 nm class of biotinylated PL peptide bound; 0 in conc columns = peptide 10 uM, protein 5 ug/ml
T3 construct: made in house; host or cells: E. coli (DH5alpha, BL21 or JM109)
Method in brief: as §1

[4] = molecular target: T4, KIAA807 (Homo sapiens, UniProt Q6P0Q8); assay: G' assay, TABLE 12; settings: A450 nm class of biotinylated PL peptide bound; 0 in conc columns = peptide 10 uM, protein 5 ug/ml
T4 construct: made in house; host or cells: E. coli (DH5alpha, BL21 or JM109)
T4 sequence (Q6P0Q8 1104-1192 limits assumed): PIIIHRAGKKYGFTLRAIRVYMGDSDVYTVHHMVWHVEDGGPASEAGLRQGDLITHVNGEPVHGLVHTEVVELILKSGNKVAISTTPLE
Method in brief: as §1

[5] = molecular target: T5, PDZ protein (GST-PDZ fusion) (Homo sapiens, UniProt Q9NR12); assay: G' assay (10 uM PL peptide), results of TABLE 7 and TABLE 12; settings: PDZ ENIGMA, PDZ Domain 1
T5 construct: made in house; host or cells: E. coli (DH5alpha, BL21 or JM109)
Method in brief: (§2)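 Biotin-PL peptide (N-term label), 10 uM vs GST-PDZ; protein 5 ug/ml by default. A450 nm binned: 1 = 0-1, 2 = 1-2, 3 = 2-3, 4 = 3-4, 5 = >4 on >2 repeats, 0 = no binding.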

[6] = molecular target: T6, PDZ protein (GST-PDZ fusion) (Homo sapiens, UniProt P55196); assay: as above; settings: PDZ AF6, PDZ Domain 1
T6 construct: made in house; host or cells: E. coli (DH5alpha, BL21 or JM109)
Method in brief: as §2

[7] = molecular target: T7, PDZ protein (GST-PDZ fusion) (Homo sapiens, UniProt Q99767); assay: as above; settings: PDZ X11-beta
T7 construct: made in house; host or cells: E. coli (DH5alpha, BL21 or JM109)
T7 sequence (Q99767 1-749): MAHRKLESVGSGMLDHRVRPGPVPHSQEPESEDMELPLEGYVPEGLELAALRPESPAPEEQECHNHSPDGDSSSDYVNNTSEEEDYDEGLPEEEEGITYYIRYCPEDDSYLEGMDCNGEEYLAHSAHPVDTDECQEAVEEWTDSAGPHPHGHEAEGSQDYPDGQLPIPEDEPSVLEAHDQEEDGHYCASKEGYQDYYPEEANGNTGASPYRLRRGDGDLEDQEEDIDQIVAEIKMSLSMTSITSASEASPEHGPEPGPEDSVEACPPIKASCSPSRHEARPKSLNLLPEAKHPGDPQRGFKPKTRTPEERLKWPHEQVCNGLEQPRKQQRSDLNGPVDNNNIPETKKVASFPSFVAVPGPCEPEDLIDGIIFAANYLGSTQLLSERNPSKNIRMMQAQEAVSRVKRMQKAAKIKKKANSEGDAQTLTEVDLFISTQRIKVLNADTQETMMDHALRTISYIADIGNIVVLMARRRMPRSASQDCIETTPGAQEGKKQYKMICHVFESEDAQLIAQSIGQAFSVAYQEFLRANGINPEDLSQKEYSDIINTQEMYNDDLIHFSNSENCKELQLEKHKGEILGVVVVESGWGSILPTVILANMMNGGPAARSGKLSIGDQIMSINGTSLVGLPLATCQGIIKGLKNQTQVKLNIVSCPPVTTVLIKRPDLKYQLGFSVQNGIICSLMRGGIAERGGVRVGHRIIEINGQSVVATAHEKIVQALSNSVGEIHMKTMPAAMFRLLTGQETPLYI
Method in brief: as §2

T5 sequence (Q9NR12 whole entry, the tested form may be a part): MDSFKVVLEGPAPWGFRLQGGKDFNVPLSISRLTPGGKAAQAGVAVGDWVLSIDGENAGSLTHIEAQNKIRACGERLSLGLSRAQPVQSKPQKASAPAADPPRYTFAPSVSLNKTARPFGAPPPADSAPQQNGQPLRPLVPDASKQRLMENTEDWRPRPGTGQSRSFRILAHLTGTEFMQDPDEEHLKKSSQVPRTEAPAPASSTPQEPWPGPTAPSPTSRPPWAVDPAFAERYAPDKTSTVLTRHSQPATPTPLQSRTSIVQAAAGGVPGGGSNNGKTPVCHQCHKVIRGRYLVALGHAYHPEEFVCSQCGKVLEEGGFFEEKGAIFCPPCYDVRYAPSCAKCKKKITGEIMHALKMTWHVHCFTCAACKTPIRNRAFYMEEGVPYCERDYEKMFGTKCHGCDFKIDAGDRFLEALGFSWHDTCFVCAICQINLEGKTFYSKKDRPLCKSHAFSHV
T1 sequence (P78352 58-398 limits assumed): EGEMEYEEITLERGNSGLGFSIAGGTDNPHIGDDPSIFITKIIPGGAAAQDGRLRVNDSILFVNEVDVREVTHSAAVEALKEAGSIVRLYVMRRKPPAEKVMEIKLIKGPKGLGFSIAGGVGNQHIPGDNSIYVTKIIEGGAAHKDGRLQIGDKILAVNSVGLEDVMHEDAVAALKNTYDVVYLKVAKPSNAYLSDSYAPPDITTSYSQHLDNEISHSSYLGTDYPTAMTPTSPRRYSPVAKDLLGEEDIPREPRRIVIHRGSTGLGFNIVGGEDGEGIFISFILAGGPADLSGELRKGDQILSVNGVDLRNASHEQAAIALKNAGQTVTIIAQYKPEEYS
T6 sequence (P55196 whole entry, the tested form may be a part): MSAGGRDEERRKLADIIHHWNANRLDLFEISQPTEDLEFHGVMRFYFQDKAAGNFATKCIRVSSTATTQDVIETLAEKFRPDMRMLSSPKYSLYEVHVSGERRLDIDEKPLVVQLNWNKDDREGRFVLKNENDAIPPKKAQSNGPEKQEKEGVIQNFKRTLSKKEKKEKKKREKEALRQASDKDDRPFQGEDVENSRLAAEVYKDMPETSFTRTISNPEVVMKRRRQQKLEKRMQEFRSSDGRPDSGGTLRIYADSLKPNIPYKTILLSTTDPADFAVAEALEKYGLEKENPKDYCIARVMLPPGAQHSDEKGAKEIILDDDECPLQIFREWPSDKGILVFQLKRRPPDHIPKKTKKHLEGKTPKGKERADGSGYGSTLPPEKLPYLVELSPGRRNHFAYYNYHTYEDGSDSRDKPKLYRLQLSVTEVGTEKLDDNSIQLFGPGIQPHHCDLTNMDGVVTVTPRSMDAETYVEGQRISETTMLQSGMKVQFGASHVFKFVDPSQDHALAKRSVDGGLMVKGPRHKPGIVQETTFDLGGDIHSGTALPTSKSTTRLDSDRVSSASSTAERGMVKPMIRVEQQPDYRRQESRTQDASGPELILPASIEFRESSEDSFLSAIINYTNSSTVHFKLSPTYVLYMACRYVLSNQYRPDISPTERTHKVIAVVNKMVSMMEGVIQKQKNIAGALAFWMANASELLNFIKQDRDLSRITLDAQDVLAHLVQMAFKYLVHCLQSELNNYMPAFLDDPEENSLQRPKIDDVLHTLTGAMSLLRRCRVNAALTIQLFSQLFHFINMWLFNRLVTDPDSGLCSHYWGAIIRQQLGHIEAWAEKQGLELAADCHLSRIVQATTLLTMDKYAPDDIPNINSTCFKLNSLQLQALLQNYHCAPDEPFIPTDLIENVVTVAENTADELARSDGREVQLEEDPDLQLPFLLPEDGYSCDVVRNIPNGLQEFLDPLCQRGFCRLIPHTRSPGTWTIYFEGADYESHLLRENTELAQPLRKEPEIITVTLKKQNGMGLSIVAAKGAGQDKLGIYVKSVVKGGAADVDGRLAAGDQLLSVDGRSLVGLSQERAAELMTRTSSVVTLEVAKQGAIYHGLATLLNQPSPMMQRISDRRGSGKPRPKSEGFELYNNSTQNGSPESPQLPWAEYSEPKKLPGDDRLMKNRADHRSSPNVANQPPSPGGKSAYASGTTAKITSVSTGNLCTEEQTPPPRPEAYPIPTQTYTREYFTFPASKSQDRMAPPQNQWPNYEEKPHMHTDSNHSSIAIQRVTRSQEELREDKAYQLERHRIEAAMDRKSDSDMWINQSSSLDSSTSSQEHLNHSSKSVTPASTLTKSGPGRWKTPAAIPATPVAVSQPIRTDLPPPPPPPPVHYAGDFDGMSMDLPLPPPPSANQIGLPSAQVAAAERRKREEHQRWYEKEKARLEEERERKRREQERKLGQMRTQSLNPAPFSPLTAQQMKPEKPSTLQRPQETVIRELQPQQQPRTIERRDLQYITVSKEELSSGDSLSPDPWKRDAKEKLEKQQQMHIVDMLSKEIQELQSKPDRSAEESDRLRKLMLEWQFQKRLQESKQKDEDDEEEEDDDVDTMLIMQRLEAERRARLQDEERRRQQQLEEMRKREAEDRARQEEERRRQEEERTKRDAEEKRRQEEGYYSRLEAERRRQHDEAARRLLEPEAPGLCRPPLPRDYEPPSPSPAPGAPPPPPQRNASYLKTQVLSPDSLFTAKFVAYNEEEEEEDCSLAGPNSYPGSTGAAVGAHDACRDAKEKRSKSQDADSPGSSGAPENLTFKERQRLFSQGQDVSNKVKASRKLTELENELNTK
T3 sequence (Q12959 213-413 limits assumed): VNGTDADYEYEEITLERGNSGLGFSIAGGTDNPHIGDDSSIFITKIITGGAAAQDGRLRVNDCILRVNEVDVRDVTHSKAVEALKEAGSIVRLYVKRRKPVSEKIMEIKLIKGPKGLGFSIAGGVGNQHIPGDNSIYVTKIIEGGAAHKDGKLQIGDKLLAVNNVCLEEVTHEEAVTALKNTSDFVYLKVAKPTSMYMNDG

Compound: CC[C@H](C)[C@H](NC(=O)[C@H](CC(=O)O)NC(=O)[C@H](CCC(=O)O)NC(=O)[C@H](CCCNC(=N)N)NC(=O)[C@@H](NC(=O)CCCC[C@@H]1SC[C@@H]2NC(=O)N[C@@H]21)[C@@H](C)O)C(=O)N[C@@H](Cc1ccc(O)cc1)C(=O)N[C@H](C(=O)N[C@@H](CC(N)=O)C(=O)N[C@@H](Cc1ccc(O)cc1)C(=O)N1CCC[C@H]1C(=O)N[C@H](C(=O)N[C@@H](Cc1ccccc1)C(=O)N[C@@H](CO)C(=O)N[C@@H](CCCNC(=N)N)C(=O)N[C@@H](CCCNC(=N)N)C(=O)N1CCC[C@H]1C(=O)N[C@@H](CCCCN)C(=O)N[C@H](C(=O)N[C@@H](CCCNC(=N)N)C(=O)N[C@H](C(=O)O)C(C)C)[C@@H](C)O)[C@@H](C)O)C(C)C [DNAM-1] (Biotin-TREDIYVNYPTFSRRPKTRV-OH; C-terminus assumed)
Classification [1]: 2 (A450 nm 1-2)
Classification [2]: 2 (A450 nm 1-2)
Classification [3]: 1 (A450 nm 0-1)

Compound: CC[C@H](C)[C@H](NC(=O)[C@H](CO)NC(=O)[C@H](CCC(=O)O)NC(=O)[C@H](Cc1ccc(O)cc1)NC(=O)[C@H](CC(=O)O)NC(=O)[C@H](CC(N)=O)NC(=O)[C@H](CCC(=O)O)NC(=O)[C@H](CCCCN)NC(=O)CCCC[C@@H]1SC[C@@H]2NC(=O)N[C@@H]21)C(=O)N[C@@H](CO)C(=O)N[C@@H](CC(=O)O)C(=O)N[C@@H](CC(C)C)C(=O)N[C@@H](CCC(N)=O)C(=O)N[C@@H](CCC(N)=O)C(=O)NCC(=O)N[C@@H](CCCNC(=N)N)C(=O)N[C@@H](CC(=O)O)C(=O)N[C@H](C(=O)N[C@H](C(=O)N[C@@H](CCCNC(=N)N)C(=O)N[C@@H](CC(C)C)C(=O)O)[C@@H](C)O)[C@@H](C)CC [PAG] (Biotin-KENDYESISDLQQGRDITRL-OH; C-terminus assumed)
Classification [4]: 5 (A450 nm of 4 more than 2× repeated)

Compound: CC[C@H](C)[C@H](NC(=O)[C@H](CCC(N)=O)NC(=O)CCCC[C@@H]1SC[C@@H]2NC(=O)N[C@@H]21)C(=O)N[C@@H](CO)C(=O)N1CCC[C@H]1C(=O)NCC(=O)NCC(=O)N[C@@H](CC(C)C)C(=O)N[C@@H](CCC(=O)O)C(=O)N1CCC[C@H]1C(=O)N1CCC[C@H]1C(=O)N[C@@H](CO)C(=O)N[C@@H](CCC(=O)O)C(=O)N[C@@H](CCCCN)C(=O)N[C@@H](Cc1c[nH]cn1)C(=O)N[C@@H](Cc1ccccc1)C(=O)N[C@@H](CCCNC(=N)N)C(=O)N[C@@H](CCC(=O)O)C(=O)N[C@H](C(=O)N[C@@H](CCC(=O)O)C(=O)N[C@H](C(=O)O)C(C)C)[C@@H](C)O [Tax]
Classification [1]: 5 (A450 nm of 4 more than 2× repeated)
Classification [2]: 5 (A450 nm of 4 more than 2× repeated)
Classification [4]: 5 (A450 nm of 4 more than 2× repeated)
Classification [3]: 5 (A450 nm of 4 more than 2× repeated)

Compound: CC(C)C[C@H](NC(=O)[C@H](CC(=O)O)NC(=O)[C@H](CO)NC(=O)[C@H](CCC(=O)O)NC(=O)CNC(=O)[C@H](Cc1ccc(O)cc1)NC(=O)[C@H](CC(C)C)NC(=O)[C@H](C)NC(=O)[C@H](CO)NC(=O)[C@H](CO)NC(=O)[C@H](Cc1ccccc1)NC(=O)[C@H](C)NC(=O)[C@H](C)NC(=O)[C@H](Cc1ccc(O)cc1)NC(=O)[C@H](CC(=O)O)NC(=O)[C@H](CC(C)C)NC(=O)[C@H](C)NC(=O)CNC(=O)[C@@H]1CCCN1C(=O)[C@@H](NC(=O)CCCC[C@@H]1SC[C@@H]2NC(=O)N[C@@H]21)C(C)C)C(=O)O [a-actinin 2] (Biotin-VPGALDYAAFSSALYGESDL-OH; C-terminus assumed)
Classification [5]: 5 (A450 nm of 4 more than 2× repeated)

Compound: CC[C@H](C)[C@H](NC(=O)[C@H](Cc1ccc(O)cc1)NC(=O)[C@H](CC(C)C)NC(=O)[C@H](CCC(N)=O)NC(=O)[C@H](Cc1c[nH]cn1)NC(=O)[C@H](CO)NC(=O)[C@H](C)NC(=O)[C@H](CC(C)C)NC(=O)[C@@H](NC(=O)[C@H](CC(=O)O)NC(=O)[C@H](CCSC)NC(=O)[C@H](Cc1ccccc1)NC(=O)[C@@H]1CCCN1C(=O)[C@H](CCCNC(=N)N)NC(=O)[C@@H](NC(=O)[C@H](CC(C)C)NC(=O)[C@H](CC(N)=O)NC(=O)[C@H](CC(=O)O)NC(=O)[C@@H](NC(=O)[C@H](CO)NC(=O)CCCC[C@@H]1SC[C@@H]2NC(=O)N[C@@H]21)[C@@H](C)O)C(C)C)[C@@H](C)O)C(=O)O [presenilin-2] (Biotin-STDNLVRPFMDTLASHQLYI-OH; C-terminus assumed)
Classification [6]: 3 (A450 nm 2-3)

Compound: A2AA_HUMAN (modified) (Biotin-HDFRRAFKKILARGDRKRIV; not fully specified)
Classification ([7]; PDZ Domain 1): 2 (A450 nm 1-2)
Classification ([7]; PDZ Domain 2): 1 (A450 nm 0-1)

Compound: ARHRVTSYTSSSVNVSSNL (Biotin-ARHRVTSYTSSSVNVSSNL) [IL-8RB]
Classification [1]: 1 (A450 nm 0-1)

Compound: ELLQFCRTPNPALKNGQYWV (Biotin-ELLQFCRTPNPALKNGQYWV)
Classification ([7]; PDZ Domain 2): 2 (A450 nm 1-2)
Classification [6]: 5 (A450 nm of 4 more than 2× repeated)

Compound: GGGGGSGGGGGSGIESVKI [GLUR2 (glutamate receptor 2-modified)]
Classification [5]: 1 (A450 nm 0-1)

Compound: GPVPGEPAKPKTSAHHATFV (Biotin-GPVPGEPAKPKTSAHHATFV)
Classification [6]: 1 (A450 nm 0-1)

Compound: ISGTPTSTMVHGMTSSSSVV (Biotin-ISGTPTSTMVHGMTSSSSVV) [Clasp-2]
Classification [1]: 2 (A450 nm 1-2)
Classification [2]: 2 (A450 nm 1-2)

Compound: LASKSAEEGKQIPDSLSTDL (Biotin-LASKSAEEGKQIPDSLSTDL) [Dock2]
Classification [4]: 5 (A450 nm of 4 more than 2× repeated)

Compound: VHDAESSDEDGYDWGPATDL (Biotin-VHDAESSDEDGYDWGPATDL) [zona occludens 3 (ZO-3)]
Classification [5]: 1 (A450 nm 0-1)

Next, values leading:

Classification [1]: 1 (A450 nm 0-1)
Classification [2]: 1 (A450 nm 0-1)
Classification [3]: 2 (A450 nm 1-2)
Compound: CC[C@H](C)[C@H](NC(=O)[C@H](CCC(=O)O)NC(=O)[C@H](CC(N)=O)NC(=O)[C@H](CCCNC(=N)N)NC(=O)[C@H](Cc1ccccc1)NC(=O)[C@H](CC(N)=O)NC(=O)[C@H](CO)NC(=O)[C@H](CC(N)=O)NC(=O)[C@H](CCC(=O)O)NC(=O)[C@H](CO)NC(=O)[C@H](CC(=O)O)NC(=O)[C@H](CO)NC(=O)[C@@H](NC(=O)[C@@H](NC(=O)[C@H](CC(=O)O)NC(=O)[C@H](CCCCN)NC(=O)CCCC[C@@H]1SC[C@@H]2NC(=O)N[C@@H]21)[C@@H](C)CC)[C@@H](C)O)C(=O)N[C@@H](CCC(N)=O)C(=O)N[C@@H](CO)C(=O)N[C@@H](CC(C)C)C(=O)N[C@H](C(=O)O)C(C)C [CD95] (Biotin-KDITSDSENSNFRNEIQSLV-OH; C-terminus assumed)

Classification ([7]; PDZ Domain 2): 1 (A450 nm 0-1)
Compound: ALVLIAFCIIRRRPSAYQAL (Biotin-ALVLIAFCIIRRRPSAYQAL) [CD68]

Classification [6]: 1 (A450 nm 0-1)
Compound: KTMPAATYRLLTGQEQPVYL (Biotin-KTMPAATYRLLTGQEQPVYL) [MINT-3]

Classification [4]: 5 (A450 nm of 4 more than 2× repeated)
Compound: QATSRNGHSARQHVVADTEL (Biotin-QATSRNGHSARQHVVADTEL) [CD34]
